# Source: paper PMC11859928, “Design, Synthesis, and Antiproliferative Activity of Novel Indole/1,2,4-Triazole Hybrids as Tubulin Polymerization Inhibitors” (Pharmaceuticals, 2025)
# Experiments:
# Assay type in all cases: cell-based, human
# [1] = system: SF-268; assay: NCI five-dose assay; settings: SF-268, CNS cancer; for CC50 / GI50: Homo sapiens; for CC50: 48 h, read-out: LC50 (the source's name); for GI50: read-out: GI50 Conc. per Cell Lines
# [2] = system: Breast cancer subpanel; assay: NCI five-dose assay, subpanel mean; settings: for GI50 Selectivity Ratio (MID a/MID b): Breast cancer subpanel; for GI50: Homo sapiens, average sensitivity of all cell lines of the Breast cancer subpanel, read-out: GI50 Subpanel MID b
# [3] = system: MOLT-4; assay: NCI five-dose assay; settings: MOLT-4, Leukemia; for GI50: read-out: GI50 Conc. per Cell Lines
# [4] = system: ACHN; assay: NCI five-dose assay; settings: Renal cancer; for LC50 / GI50: Homo sapiens; for LC50: 48 h; for GI50: read-out: GI50 Conc. per Cell Lines
# [5] = system: HS 578T; assay: NCI five-dose assay; settings: Breast cancer; for LC50 / GI50: Homo sapiens; for LC50: 48 h; for GI50: read-out: GI50 Conc. per Cell Lines
# [6] = system: Leukemia subpanel; assay: NCI five-dose assay, subpanel mean; settings: for GI50: Homo sapiens, average sensitivity of all cell lines of the Leukemia subpanel, read-out: GI50 Subpanel MID b; for GI50 Selectivity Ratio (MID a/MID b): Leukemia subpanel
# [7] = system: Prostate cancer subpanel; assay: NCI five-dose assay, subpanel mean; settings: for GI50: Homo sapiens, average sensitivity of all cell lines of the Prostate cancer subpanel, read-out: GI50 Subpanel MID b; for GI50 Selectivity Ratio (MID a/MID b): Prostate cancer subpanel
# [8] = system: EKVX; assay: NCI five-dose assay; settings: Non-small cell lung cancer; for CC50 / GI50: Homo sapiens; for CC50: 48 h, read-out: LC50 (the source's name); for GI50: read-out: GI50 Conc. per Cell Lines
# [9] = system: RPMI-8226; assay: NCI five-dose assay; settings: RPMI-8226, Leukemia; for CC50 / GI50: Homo sapiens; for CC50: 48 h, read-out: LC50 (the source's name); for GI50: read-out: GI50 Conc. per Cell Lines
# [10] = system: CCRF-CEM; assay: NCI five-dose assay; settings: Leukemia; for CC50 / GI50: Homo sapiens; for CC50: 48 h, read-out: LC50 (the source's name); for GI50: read-out: GI50 Conc. per Cell Lines
# [11] = system: U251; assay: NCI five-dose assay; settings: U251, CNS cancer; for CC50 / GI50: Homo sapiens, U-251; for CC50: 48 h, read-out: LC50 (the source's name); for GI50: read-out: GI50 Conc. per Cell Lines
# [12] = system: HOP-92; assay: NCI five-dose assay; settings: HOP-92, Non-small cell lung cancer; for CC50 / GI50: Homo sapiens; for CC50: 48 h, read-out: LC50 (the source's name); for GI50: read-out: GI50 Conc. per Cell Lines
# [13] = system: RXF393; assay: NCI five-dose assay; settings: RXF393, Renal cancer; for LC50 (concentration killing 50% of cells) / GI50: Homo sapiens, RXF 393; for LC50 (concentration killing 50% of cells): 48 h; for GI50: read-out: GI50 Conc. per Cell Lines
SMILES,CC50 [1],GI50 [1],TGI Conc. per Cell Lines [1],GI50 Selectivity Ratio (MID a/MID b) [2],GI50 [2],GI50 ([3]; Homo sapiens),TGI Conc. per Cell Lines [3],LC50 [4],GI50 [4],TGI Conc. per Cell Lines [4],TGI Conc. per Cell Lines [5],LC50 [5],GI50 [5],GI50 [6],GI50 Selectivity Ratio (MID a/MID b) [6],GI50 [7],GI50 Selectivity Ratio (MID a/MID b) [7],CC50 [8],GI50 [8],TGI Conc. per Cell Lines [8],further results
"Cc1ccc(C(=O)CSc2nnc(-c3c[nH]c4ccccc34)n2-c2ccccc2)cc1 [Compound 6h, 2-((5-(1H-Indol-3-yl)-4-phenyl-4H-1,2,4-triazol-3-yl)thio)-1-(p-tolyl)ethenone]",> 100 µM,24.2 µM,78.90 µM,1.07,18 µM,21.8 µM,˃100 µM,62.3 µM,13.7 µM,29.20 µM,56.30 µM,> 100 µM,14.1 µM,33.5 µM,0.58,8.42 µM,2.29,> 100 µM,19 µM,98.90 µM,"CC50 ([3]; Homo sapiens, 48 h, read-out: LC50 (the source's name)): > 100 µM; CC50 [9]: > 100 µM; GI50 [9]: 29.8 µM; TGI Conc. per Cell Lines [9]: ˃100 µM; CC50 [10]: > 100 µM; GI50 [10]: 54.4 µM; TGI Conc. per Cell Lines [10]: ˃100 µM; CC50 [11]: > 100 µM; GI50 [11]: 23.6 µM; TGI Conc. per Cell Lines [11]: 65.60 µM; TGI Conc. per Cell Lines [12]: 34.70 µM; CC50 [12]: 82.1 µM; GI50 [12]: 14.7 µM; LC50 (concentration killing 50% of cells) [13]: 61.5 µM; GI50 [13]: 13.6 µM; TGI Conc. per Cell Lines [13]: 28.90 µM"
"Cc1ccc(/C(CSc2nnc(-c3c[nH]c4ccccc34)n2-c2ccccc2)=N/O)cc1 [Compound 7h, (Z)-2-((5-(1H-Indol-3-yl)-4-phenyl-4H-1,2,4-triazol-3-yl)thio)-1-(p-tolyl)ethanone Oxime]",> 100 µM,1.99 µM,4.66 µM,1.58,1.9 µM,2.04 µM,4.23 µM,6.26 µM,1.79 µM,3.35 µM,4.82 µM,> 100 µM,2.07 µM,2.03 µM,1.47,1.85 µM,1.61,> 100 µM,2.15 µM,5.58 µM,CC50 [9]: > 100 µM; GI50 [9]: 2.05 µM; TGI Conc. per Cell Lines [9]: 4.81 µM; CC50 [10]: > 100 µM; GI50 [10]: 2.14 µM; TGI Conc. per Cell Lines [10]: 4.98 µM; CC50 [11]: > 100 µM; GI50 [11]: 8.22 µM; TGI Conc. per Cell Lines [11]: >100 µM; TGI Conc. per Cell Lines [12]: 37.40 µM; CC50 [12]: > 100 µM; GI50 [12]: 11.9 µM; LC50 (concentration killing 50% of cells) [13]: 7.65 µM; GI50 [13]: 1.85 µM; TGI Conc. per Cell Lines [13]: 3.76 µM
